In patent publication US11130793B2, “GLP-1/GLP-2 dual agonists” (Zealand Pharma A/S, priority 2016, dated 2021):
Square brackets hold non-standard residues; d marks the D form. Peptide text beside a SMILES is read from it. Aib = CC(C)(N)C(=O)O

What was measured:
human GLP-2 receptor = molecular target: T1, human GLP-2 receptor (Homo sapiens, UniProt O95838, D470N); experiment: GLP-2 receptor potency assay (cAMP AlphaScreen, HEK293 cells stably expressing GLP-2R); assay type: cell-based; conditions: cAMP response, HEK293 cells expressing human GLP-2R
T1 sequence (O95838 1-553 D470N): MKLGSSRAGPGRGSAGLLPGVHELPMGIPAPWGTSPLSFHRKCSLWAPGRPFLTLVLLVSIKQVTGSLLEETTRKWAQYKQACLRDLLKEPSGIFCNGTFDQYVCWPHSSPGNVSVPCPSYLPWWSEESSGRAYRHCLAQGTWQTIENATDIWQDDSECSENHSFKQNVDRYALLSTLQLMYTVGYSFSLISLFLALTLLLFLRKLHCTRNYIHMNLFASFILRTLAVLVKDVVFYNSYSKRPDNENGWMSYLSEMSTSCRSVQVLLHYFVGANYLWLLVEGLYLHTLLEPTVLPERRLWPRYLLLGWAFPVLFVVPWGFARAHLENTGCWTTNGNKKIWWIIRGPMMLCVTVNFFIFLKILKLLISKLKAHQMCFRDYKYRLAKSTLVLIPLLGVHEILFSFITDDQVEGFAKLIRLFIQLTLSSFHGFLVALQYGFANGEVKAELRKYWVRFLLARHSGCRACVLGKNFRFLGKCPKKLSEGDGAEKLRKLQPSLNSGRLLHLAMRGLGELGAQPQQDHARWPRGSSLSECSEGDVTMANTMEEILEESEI
Description: (§1) One useful in vitro assay for measuring GLP-1 and GLP-2 receptor activity is quantitation of cAMP, i.e. 3′-5′-cyclic adenosine monophosphate, which is a second messenger essential in many biological processes, and one of the most ubiquitous mechanisms for regulating cellular functions. […] Test compounds eliciting an increase in the intracellular level of cAMP can be tested in these assays, and the response normalized relative to a positive and negative control (vehicle) to calculate the EC50 and maximal response from the concentration response curve using the 4-parameter logistic (4PL) nonlinear model for curve fitting.
The hGLP2-R was purchased from MRC-geneservice, Babraham, Cambridge as an Image clone: 5363415 (11924-I17). For subcloning into a mammalian expression vector, primers for subcloning were obtained from DNA-Technology, Risskov, Denmark. The 5′ and 3′ primers used for the PCR reaction include terminal restriction sites for cloning and the context of the 5′ primer is modified to a Kozak consensus without changing the sequence of the product encoded by the ORF. A standard PCR reaction was run using Image clone 5363415 (11924-117) as a template with the above mentioned primers and Polymerase Herculase II Fusion in a total vol. of 50 μl. The generated PCR product was purified using GFX PCR and Gel band purification kit, digested with restriction enzymes and cloned into the mammalian expression vector using Rapid DNA Ligation Kit. Ligation reaction was transformed to XL10 Gold Ultracompetent cells and colonies were picked for DNA production using Endofree Plasmid maxi kit. Subsequent sequence analysis was conducted by MWG Eurofins, Germany.
HEK293 cells were transfected using the Lipofectamine PLUS transfection method. The day before transfection, HEK293 cells were seeded in two T75 flasks at a density of 2×10^6 cells/T75 flask in cell culturing medium without antibiotics. On the day of transfection, cells were washed with 1×DPBS and medium was replaced with Optimem to a volume of 5 mL/T75 flask before addition of Lipofectamine-plasmid complexes were added gently and drop wise to the cells in T75 flasks and replaced with growth medium after 3 hours and again to growth medium supplemented with 500 μg/mL G418 after 24 hours. Following 4 weeks in G418 selection, clones were picked and tested in a functional GLP-2 receptor potency assay as described below.
(§2) The cAMP AlphaScreen assay from Perkin Elmer was used to quantitate the cAMP response to activation of the GLP1 and GLP2 receptor, respectively. […] Data from test compounds eliciting an increase in the intracellular level of cAMP were normalized relative to the positive and negative control (vehicle) to calculate the EC50 and maximal response from the concentration response curve.

human GLP-1 receptor = molecular target: T2, human GLP-1 receptor (Homo sapiens, UniProt P43220); experiment: GLP-1 receptor potency assay (cAMP AlphaScreen, HEK293 cells stably expressing GLP-1R); assay type: cell-based; conditions: cAMP response, HEK293 cells expressing human GLP-1R; read-out: EC50 GLP-1
T2 construct: expressed in transfected cells
Description: as §1
The cDNA encoding the human glucagon-like peptide 1 receptor (GLP-1R) (primary accession number P43220) was cloned from the cDNA BC112126 (MGC:138331/IMAGE:8327594). The DNA encoding the GLP-1-R was amplified by PCR using primers encoding terminal restriction sites for subcloning. The 5′-end primers additionally encoded a near Kozak consensus sequence to ensure efficient translation. […] The PCR products encoding the GLP-1-R were subcloned into a mammalian expression vector containing a neomycin (G418) resistance marker. The mammalian expression vectors encoding the GLP-1-R were transfected into HEK293 cells by a standard calcium phosphate transfection method. 48 hours post-transfection, cells were seeded for limited dilution cloning and selected with 1 mg/ml G418 in the culture medium. Following 3 weeks in G418 selection clones were picked and tested in a functional GLP-1 receptor potency assay as described below.
as §2

T2 sequence (P43220 24-463): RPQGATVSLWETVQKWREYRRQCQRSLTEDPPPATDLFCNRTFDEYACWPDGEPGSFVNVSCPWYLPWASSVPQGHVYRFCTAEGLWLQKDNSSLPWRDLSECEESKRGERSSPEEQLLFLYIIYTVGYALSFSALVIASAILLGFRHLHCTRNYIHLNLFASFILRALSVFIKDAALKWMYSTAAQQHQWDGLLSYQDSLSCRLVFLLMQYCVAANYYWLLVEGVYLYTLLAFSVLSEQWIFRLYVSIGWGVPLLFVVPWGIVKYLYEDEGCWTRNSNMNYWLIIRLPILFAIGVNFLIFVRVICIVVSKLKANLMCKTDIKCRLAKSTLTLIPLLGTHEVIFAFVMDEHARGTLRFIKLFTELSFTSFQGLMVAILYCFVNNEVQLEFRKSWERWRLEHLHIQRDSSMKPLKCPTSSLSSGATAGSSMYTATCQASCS

| EC50 (human GLP-2 receptor) [nM] | EC50 (human GLP-1 receptor) [nM] | SMILES |
| --- | --- | --- |
| 0.26 | 0.012 | CC[C@H](C)[C@H](NC(=O)[C@H](CC(C)C)NC(=O)[C@H](Cc1c[nH]c2ccccc12)NC(=O)[C@H](C)NC(=O)[C@@H](NC(=O)[C@H](Cc1ccccc1)NC(=O)[C@H](CC(=O)O)NC(=O)[C@H](CCCNC(=N)N)NC(=O)[C@H](C)NC(=O)[C@H](C)NC(=O)[C@H](CCC(N)=O)NC(=O)[C@H](CCC(=O)O)NC(=O)[C@H](CC(=O)O)NC(=O)[C@H](CC(C)C)NC(=O)[C@@H](NC(=O)[C@@H](NC(=O)[C@H](C)NC(=O)[C@H](CC(C)C)NC(=O)[C@H](CCC(=O)O)NC(=O)[C@H](CO)NC(=O)[C@@H](NC(=O)[C@H](Cc1ccccc1)NC(=O)[C@@H](NC(=O)CNC(=O)[C@H](CCC(=O)O)NC(=O)C(C)(C)NC(=O)[C@@H](N)Cc1c[nH]cn1)[C@@H](C)O)[C@@H](C)O)[C@@H](C)O)[C@@H](C)CC)[C@@H](C)CC)C(=O)N[C@@H](C)C(=O)N[C@@H](Cc1ccc(O)cc1)C(=O)N[C@@H](CCCCN)C(=O)N[C@H](C(=O)N[C@H](C(=O)N[C@@H](CC(=O)O)C(=O)O)[C@@H](C)O)[C@@H](C)CC [Compound 20] (H-H[Aib]EGTFTSELATILDEQAARDFIAWLIAYKITD-OH) |
| 0.054 | 0.006 | CC[C@H](C)[C@H](NC(=O)[C@H](Cc1ccccc1)NC(=O)[C@H](CC(=O)O)NC(=O)[C@H](CCCNC(=N)N)NC(=O)[C@H](C)NC(=O)[C@H](C)NC(=O)[C@H](CCC(N)=O)NC(=O)[C@H](CCC(=O)O)NC(=O)[C@H](CC(=O)O)NC(=O)[C@H](CC(C)C)NC(=O)[C@@H](NC(=O)[C@@H](NC(=O)[C@H](C)NC(=O)[C@H](CC(C)C)NC(=O)[C@H](CCC(=O)O)NC(=O)[C@H](CO)NC(=O)[C@@H](NC(=O)[C@H](Cc1ccccc1)NC(=O)[C@@H](NC(=O)CNC(=O)[C@H](CCC(=O)O)NC(=O)C(C)(C)NC(=O)[C@@H](N)Cc1c[nH]cn1)[C@@H](C)O)[C@@H](C)O)[C@@H](C)O)[C@@H](C)CC)C(=O)N[C@@H](C)C(=O)N[C@@H](Cc1c[nH]c2ccccc12)C(=O)N[C@@H](CC(C)C)C(=O)N[C@H](C(=O)N[C@@H](CO)C(=O)N[C@@H](Cc1c[nH]cn1)C(=O)N[C@@H](CCCCN)C(=O)N[C@H](C(=O)N[C@H](C(=O)N[C@@H](CC(=O)O)C(=O)O)[C@@H](C)O)[C@@H](C)CC)[C@@H](C)CC [Compound 18] (H-H[Aib]EGTFTSELATILDEQAARDFIAWLISHKITD-OH) |
| 0.026 | 0.078 | CC[C@H](C)[C@H](NC(=O)[C@H](Cc1ccccc1)NC(=O)[C@H](CC(=O)O)NC(=O)[C@H](CCCNC(=N)N)NC(=O)[C@H](C)NC(=O)[C@H](C)NC(=O)[C@H](CCC(N)=O)NC(=O)[C@H](CCC(=O)O)NC(=O)[C@H](CC(=O)O)NC(=O)[C@H](CC(C)C)NC(=O)[C@@H](NC(=O)[C@@H](NC(=O)[C@H](C)NC(=O)[C@H](CC(C)C)NC(=O)[C@H](CCC(=O)O)NC(=O)[C@H](CO)NC(=O)[C@H](CO)NC(=O)[C@H](Cc1ccccc1)NC(=O)[C@H](CO)NC(=O)CNC(=O)[C@H](CCC(=O)O)NC(=O)C(C)(C)NC(=O)[C@@H](N)Cc1c[nH]cn1)[C@@H](C)O)[C@@H](C)CC)C(=O)N[C@@H](C)C(=O)N[C@@H](Cc1c[nH]c2ccccc12)C(=O)N[C@@H](CC(C)C)C(=O)N[C@H](C(=O)N[C@@H](CCC(N)=O)C(=O)N[C@@H](Cc1c[nH]cn1)C(=O)N[C@@H](CCCCN)C(=O)N[C@H](C(=O)N[C@H](C(=O)N[C@@H](CC(=O)O)C(=O)O)[C@@H](C)O)[C@@H](C)CC)[C@@H](C)CC [Compound 41] (H-H[Aib]EGSFSSELATILDEQAARDFIAWLIQHKITD-OH) |
| 0.11 | 0.007 | CC[C@H](C)[C@H](NC(=O)[C@H](Cc1ccccc1)NC(=O)[C@H](CC(=O)O)NC(=O)[C@H](CCCNC(=N)N)NC(=O)[C@H](C)NC(=O)[C@H](C)NC(=O)[C@H](CCC(N)=O)NC(=O)[C@H](CCC(=O)O)NC(=O)[C@H](CC(=O)O)NC(=O)[C@H](CC(C)C)NC(=O)[C@@H](NC(=O)[C@@H](NC(=O)[C@H](C)NC(=O)[C@H](CC(C)C)NC(=O)[C@H](CCC(=O)O)NC(=O)[C@H](CO)NC(=O)[C@@H](NC(=O)[C@H](Cc1ccccc1)NC(=O)[C@@H](NC(=O)CNC(=O)[C@H](CCC(=O)O)NC(=O)C(C)(C)NC(=O)[C@@H](N)Cc1c[nH]cn1)[C@@H](C)O)[C@@H](C)O)[C@@H](C)O)[C@@H](C)CC)C(=O)N[C@@H](CC(N)=O)C(=O)N[C@@H](Cc1c[nH]c2ccccc12)C(=O)N[C@@H](CC(C)C)C(=O)N[C@@H](CCCCN)C(=O)N[C@@H](CO)C(=O)N[C@@H](Cc1ccc(O)cc1)C(=O)N[C@@H](CCCCN)C(=O)N[C@H](C(=O)N[C@H](C(=O)N[C@@H](CC(=O)O)C(=O)O)[C@@H](C)O)[C@@H](C)CC [Compound 36] (H-H[Aib]EGTFTSELATILDEQAARDFINWLKSYKITD-OH) |
| 0.066 | 0.006 | CC[C@H](C)[C@H](NC(=O)[C@H](Cc1ccccc1)NC(=O)[C@H](CC(=O)O)NC(=O)[C@H](CCCNC(=N)N)NC(=O)[C@H](C)NC(=O)[C@H](C)NC(=O)[C@H](CCC(N)=O)NC(=O)[C@H](CCC(=O)O)NC(=O)[C@H](CC(=O)O)NC(=O)[C@H](CC(C)C)NC(=O)[C@@H](NC(=O)[C@@H](NC(=O)[C@H](C)NC(=O)[C@H](CC(C)C)NC(=O)[C@H](CCC(=O)O)NC(=O)[C@H](CO)NC(=O)[C@@H](NC(=O)[C@H](Cc1ccccc1)NC(=O)[C@@H](NC(=O)CNC(=O)[C@H](CCC(=O)O)NC(=O)C(C)(C)NC(=O)[C@@H](N)Cc1c[nH]cn1)[C@@H](C)O)[C@@H](C)O)[C@@H](C)O)[C@@H](C)CC)C(=O)N[C@@H](C)C(=O)N[C@@H](Cc1c[nH]c2ccccc12)C(=O)N[C@@H](CC(C)C)C(=O)N[C@H](C(=O)N[C@@H](CCCNC(=N)N)C(=O)N[C@@H](Cc1c[nH]cn1)C(=O)N[C@@H](CCCCN)C(=O)N[C@H](C(=O)N[C@H](C(=O)N[C@@H](CC(=O)O)C(=O)O)[C@@H](C)O)[C@@H](C)CC)[C@@H](C)CC [Compound 17] (H-H[Aib]EGTFTSELATILDEQAARDFIAWLIRHKITD-OH) |
| – | 39 | CC[C@H](C)[C@H](NC(=O)[C@H](Cc1ccccc1)NC(=O)[C@H](CC(=O)O)NC(=O)[C@H](CCCNC(=N)N)NC(=O)[C@H](C)NC(=O)[C@H](C)NC(=O)[C@H](CC(C)C)NC(=O)[C@H](CC(N)=O)NC(=O)[C@H](CC(=O)O)NC(=O)[C@H](CC(C)C)NC(=O)[C@@H](NC(=O)[C@@H](NC(=O)[C@H](CC(N)=O)NC(=O)[C@H](CCSC)NC(=O)[C@H](CCC(=O)O)NC(=O)[C@H](CC(=O)O)NC(=O)[C@H](CO)NC(=O)[C@H](Cc1ccccc1)NC(=O)[C@H](CO)NC(=O)CNC(=O)[C@H](CC(=O)O)NC(=O)CNC(=O)[C@@H](N)Cc1c[nH]cn1)[C@@H](C)O)[C@@H](C)CC)C(=O)N[C@@H](CC(N)=O)C(=O)N[C@@H](Cc1c[nH]c2ccccc12)C(=O)N[C@@H](CC(C)C)C(=O)N[C@H](C(=O)N[C@@H](CCC(N)=O)C(=O)N[C@H](C(=O)N[C@@H](CCCCN)C(=O)N[C@H](C(=O)N[C@H](C(=O)N[C@@H](CC(=O)O)C(=O)O)[C@@H](C)O)[C@@H](C)CC)[C@@H](C)O)[C@@H](C)CC [Teduglutide, [Gly2]-hGLP-2 (1-33), reference compound] |
